Experimental findings from US11292821B2, “Peptides and combination of peptides for use in immunotherapy against lung cancer, including NSCLC, SCLC and other cancers” (Immatics Biotechnologies GmbH, priority 2017, dated 2022) are described below.

The assay relates to HLA-A*01. Nature of the assay: MHC binding assay (UV-ligand exchange, β2m ELISA). Details: species or system human. From the text: Candidate peptides for T cell based therapies according to the present invention were further tested for their MHC binding capacity (affinity). The individual peptide-MHC complexes were produced by UV-ligand exchange, where a UV-sensitive peptide is cleaved upon UV-irradiation, and exchanged with the peptide of interest as analyzed. Only peptide candidates that can effectively bind and stabilize the peptide-receptive MHC molecules prevent dissociation of the MHC complexes. To determine the yield of the exchange reaction, an ELISA was performed based on the detection of the light chain (β2m) of stabilized MHC complexes. The assay was performed as generally described in Rodenko et al. (Rodenko et al., 2006).
96 well MAXISorp plates (NUNC) were coated over night with 2 ug/ml streptavidin in PBS at room temperature, washed 4× and blocked for 1 h at 37° C. in 2% BSA containing blocking buffer. […] Peptide-MHC monomers of the UV-exchange reaction were diluted 100-fold in blocking buffer. Samples were incubated for 1 h at 37° C., washed four times, incubated with 2 ug/ml HRP conjugated anti-β2m for 1h at 37° C., washed again and detected with TMB solution that is stopped with […]. Absorption was measured at 450 nm. Candidate peptides that show a high exchange yield (preferably higher than 50%, most preferred higher than 75%) are generally preferred for a generation and production of antibodies or fragments thereof, and/or T cell receptors or fragments thereof, as they show sufficient avidity to the MHC molecules and prevent dissociation of the MHC complexes.

On to “168 (QTDHPQPILDRY; listed as Homo sapiens) [compound 168]”, for which the “Peptide exchange (peptide exchange yield, MHC class I binding score)” value (“Peptide exchange” below) is ““++++” (>75% = ++++)”.
Then “169 (RLDTPLYFSY; listed as Homo sapiens) [compound 169]”, with ““++++” (>75% = ++++)”; and “170 (RSDDTAVYY; listed as Homo sapiens) [compound 170]”, with ““++++” (>75% = ++++)”.
For the substance “171 (RSDPVTLNVLY; listed as Homo sapiens) [compound 171]”, the “Peptide exchange” value is reported as ““++++” (>75% = ++++)”.
Then “172 (RTDSCSSAQAQY; listed as Homo sapiens) [compound 172]”, with ““+++” (>50 = +++)”.
Then “176 (SRTINVSNLY; listed as Homo sapiens) [compound 176]”, with ““+++” (>50 = +++)”; and “177 (SSDEVNFLVY; listed as Homo sapiens) [compound 177]”, with ““++++” (>75% = ++++)”; and “178 (SSDSSTLPKL; listed as Homo sapiens) [compound 178]”, with ““++” (>20% = ++)”.
Turning to “179 (STAKSATWTY; listed as Homo sapiens) [compound 179]”, the “Peptide exchange” value is ““++++” (>75% = ++++)”.
With “180 (STDPWIQMAY; listed as Homo sapiens) [compound 180]”, the “Peptide exchange” value was ““++++” (>75% = ++++)”.
Turning to “181 (TADGKTYYY; listed as Homo sapiens) [compound 181]”, the “Peptide exchange” value is given as ““+++” (>50 = +++)”.
Then “182 (TDYHVRVY; listed as Homo sapiens) [compound 182]”, with ““+++” (>50 = +++)”; and “183 (TLEDIATSHLY; listed as Homo sapiens) [compound 183]”, with ““++++” (>75% = ++++)”; and “184 (TSAHPEDSSFY; listed as Homo sapiens) [compound 184]”, with ““+++” (>50 = +++)”.
Regarding “186 (TTDIIEKY; listed as Homo sapiens) [compound 186]”, the “Peptide exchange” value is ““+++” (>50 = +++)”.
For the substance “188 (VSDAKLDKY; listed as Homo sapiens) [compound 188]”, the “Peptide exchange” value was ““+++” (>50 = +++)”.
Then “190 (VTDGINPLIDRY; listed as Homo sapiens) [compound 190]”, with ““+++” (>50 = +++)”.
For “191 (VTDGSLYEGVAY; listed as Homo sapiens) [compound 191]”, the “Peptide exchange” value is recorded as ““++++” (>75% = ++++)”.
“192 (VTEESFDSKFY; listed as Homo sapiens) [compound 192]”: the “Peptide exchange” value is ““++++” (>75% = ++++)”.
Then “194 (VVADTKMIEY; listed as Homo sapiens) [compound 194]”, with ““+” (>10% = +)”; and “195 (VVDSVGGYLY; listed as Homo sapiens) [compound 195]”, with ““++++” (>75% = ++++)”; and “196 (WMFFVINY; listed as Homo sapiens) [compound 196]”, with ““+” (>10% = +)”.
Then “197 (YADTVRPEFY; listed as Homo sapiens) [compound 197]”, with ““+++” (>50 = +++)”; and “198 (YLDPVQRDLY; listed as Homo sapiens) [compound 198]”, with ““++++” (>75% = ++++)”; and “199 (YLPQHTIETY; listed as Homo sapiens) [compound 199]”, with ““++” (>20% = ++)”.
Then “200 (YSDEDVTKY; listed as Homo sapiens) [compound 200]”, with ““++++” (>75% = ++++)”; and “394 (ASEAEMRLFY; listed as Homo sapiens) [compound 394]”, with ““++++” (>75% = ++++)”; and “396 (ASEFGNHYLY; listed as Homo sapiens) [compound 396]”, with ““++++” (>75% = ++++)”.
In the case of “397 (ASEITSKGASLY; listed as Homo sapiens) [compound 397]”, the “Peptide exchange” value is given as ““++++” (>75% = ++++)”.
With “399 (ATDIPCLLY; listed as Homo sapiens) [compound 399]”, the “Peptide exchange” value is ““++++” (>75% = ++++)”.
Then “400 (ATDISRQNEY; listed as Homo sapiens) [compound 400]”, with ““+++” (>50 = +++)”; and “401 (DSDESYMEKSLY; listed as Homo sapiens) [compound 401]”, with ““++++” (>75% = ++++)”; and “402 (DTDSQRLAY; listed as Homo sapiens) [compound 402]”, with ““+++” (>50 = +++)”.
Then “403 (ELDSKVEVLTY; listed as Homo sapiens) [compound 403]”, with ““+++” (>50 = +++)”; and “404 (ETARKFLYY; listed as Homo sapiens) [compound 404]”, with ““++++” (>75% = ++++)”; and “406 (ETEQTKFWDY; listed as Homo sapiens) [compound 406]”, with ““++++” (>75% = ++++)”.
For the substance “407 (FSDNDKLYLY; listed as Homo sapiens) [compound 407]”, the “Peptide exchange” value is given as ““++++” (>75% = ++++)”.
Regarding “408 (FTEQWTDGY; listed as Homo sapiens) [compound 408]”, the “Peptide exchange” value was ““+++” (>50 = +++)”.
“409 (FVDPLVTNY; listed as Homo sapiens) [compound 409]”: the “Peptide exchange” value was ““++++” (>75% = ++++)”.
Regarding “410 (GSDHQSPSSSSY; listed as Homo sapiens) [compound 410]”, the “Peptide exchange” value is given as ““++++” (>75% = ++++)”.
As for “411 (GTVYEDLRY; listed as Homo sapiens) [compound 411]”, the “Peptide exchange” value is on record as ““++++” (>75% = ++++)”.
In the case of “412 (ILDEVIMGY; listed as Homo sapiens) [compound 412]”, the “Peptide exchange” value is given as ““++++” (>75% = ++++)”.
With “413 (ISDRYYTALY; listed as Homo sapiens) [compound 413]”, the “Peptide exchange” value is recorded as ““++++” (>75% = ++++)”.
With “414 (KTDESLTKY; listed as Homo sapiens) [compound 414]”, the “Peptide exchange” value was ““+++” (>50 = +++)”.
Take “415 (LLDPRSYHTY; listed as Homo sapiens) [compound 415]”: the “Peptide exchange” value was ““+++” (>50 = +++)”.
Turning to “416 (LLDTAQKNLY; listed as Homo sapiens) [compound 416]”, the “Peptide exchange” value was ““++++” (>75% = ++++)”.
For the substance “417 (LLEDKHFQSY; listed as Homo sapiens) [compound 417]”, the “Peptide exchange” value is ““++++” (>75% = ++++)”.
Turning to “418 (LSDPSGPKSY; listed as Homo sapiens) [compound 418]”, the “Peptide exchange” value is recorded as ““+++” (>50 = +++)”.
“419 (LSELKPMSY; listed as Homo sapiens) [compound 419]”: the “Peptide exchange” value was ““++++” (>75% = ++++)”.
For the substance “420 (LTEDKETLQY; listed as Homo sapiens) [compound 420]”, the “Peptide exchange” value was ““++++” (>75% = ++++)”.
In the case of “421 (LTELLERAAFY; listed as Homo sapiens) [compound 421]”, the “Peptide exchange” value is given as ““++++” (>75% = ++++)”.
Consider “422 (MIDVTKSYY; listed as Homo sapiens) [compound 422]”, for which the “Peptide exchange” value is ““++++” (>75% = ++++)”.
As for “423 (NLDAVHDITVAY; listed as Homo sapiens) [compound 423]”, the “Peptide exchange” value is ““++++” (>75% = ++++)”.
In the case of “424 (NLDEEKQLLY; listed as Homo sapiens) [compound 424]”, the “Peptide exchange” value is ““+++” (>50 = +++)”.
As to “425 (NLDIIQQEY; listed as Homo sapiens) [compound 425]”, the “Peptide exchange” value was ““++++” (>75% = ++++)”.
Take “426 (NLDQATRVAY; listed as Homo sapiens) [compound 426]”: the “Peptide exchange” value was ““+++” (>50 = +++)”.
Turning to “427 (NSDEQKITEMVY; listed as Homo sapiens) [compound 427]”, the “Peptide exchange” value is listed as ““++++” (>75% = ++++)”.
